The term pIC50 denotes −log10 of the IC50, conventionally taken in molar units.

The results in this text go back to US11780812B2, “Oxopyridine derivatives useful as aminocarboxymuconate semialdehyde decarboxylase (ACMSD) inhibitors” (OrsoBio, Inc., priority 2016, dated 2023).

SMILES strings stand for the structures. pIC50: −log10 of the molar value. Where only a bound is given, the exact number is not on record here.

In the test the target is human ACMSD (Homo sapiens (Human), UniProt Q8TDX5). Nature of the test: Human ACMSD-1 inhibitor assay (coupled 3-HAO/ACMSD, absorbance at 360 nm). The conditions noted are these: read-out: hACMSD IC50; human ACMSD 6 μg/ml, 50 mM MES pH 6.0, 28° C., four-parameter dose-response fit.
human ACMSD, sequence (Q8TDX5 whole entry): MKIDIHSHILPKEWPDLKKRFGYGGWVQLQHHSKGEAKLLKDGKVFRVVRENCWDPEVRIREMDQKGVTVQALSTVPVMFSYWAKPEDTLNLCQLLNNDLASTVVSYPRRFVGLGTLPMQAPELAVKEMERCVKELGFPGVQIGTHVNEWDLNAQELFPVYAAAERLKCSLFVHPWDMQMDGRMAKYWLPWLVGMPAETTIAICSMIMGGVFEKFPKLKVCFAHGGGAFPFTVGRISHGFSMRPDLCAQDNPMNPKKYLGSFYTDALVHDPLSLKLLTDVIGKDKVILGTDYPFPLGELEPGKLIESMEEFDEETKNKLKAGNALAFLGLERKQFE
Description: A solution of 7.8 μg/ml 3-hydroxyanthranilate 3,4-dioxygenase (3-HAO) with protein dilution buffer (50 mM 4-Morpholineethanesulfonic acid “MES” pH 6.0) and a solution of 6 μg/ml Human 2-amino-3-carboxymuconate-6-semialdehyde decarboxylase (human ACMSD) with protein dilution buffer (50 mM MES pH 6.0) were prepared separately. A serial 2-fold dilution of test compounds, from 512 nM until 0.5 nM were prepared.
The plate was placed into a SpectraMax Plus 384 Microplate Reader, Molecular Devices with the temperature set to 28° C. The absorbance at 360 nm for 10 min with 10 seconds interval was monitored and recorded.
To a 96-well plate was added 50 μl of 6 μg/ml human ACMSD with series concentrations of the test compound. The absorbance was recorded at 360 nm for 10 min with 10 seconds interval. The data was analyzed in GraphPad Prism 6. A four-parameter dose-response curve was fitted. “Hill Slope” was constrained between −0.5 and −3, and such constrains was indicated when applied.
As to `N#Cc1c(C(F)(F)F)cc(=O)[nH]c1SCC(=O)O` [Ex. 1, 2-((3-cyano-6-oxo-4-(trifluoromethyl)-1,6-dihydropyridin-2-yl)thio)acetic acid], the pIC50 is 8.22.

For the compound `N#Cc1c(C(F)(F)F)cc(=O)[nH]c1SCCC(=O)O` [Ex. 2, 3-(3-cyano-6-oxo-4-(trifluoromethyl)-1,6-dihydropyridin-2-ylthio)propanoic acid], the pIC50 was 6.12.

Turning to `N#Cc1c(C(F)(F)F)cc(=O)[nH]c1SCc1cc(C(=O)O)ccc1Cl` [Ex. 3, 4-chloro-3-((3-cyano-6-oxo-4-(trifluoromethyl)-1,6-dihydropyridin-2-ylthio)methyl)benzoic acid], the negative logarithm of the IC50 (pIC50) is 6.80.

With `N#Cc1c(C(F)F)cc(=O)[nH]c1SCC(=O)O` [Ex. 4, 2-((3-cyano-4-(difluoromethyl)-6-oxo-1,6-dihydropyridin-2-yl)thio)acetic acid], the pIC50 is 6.93.

For `Cc1c(C(F)(F)F)c(C#N)c(SCC(=O)O)[nH]c1=O` [Ex. 5, 2-((3-cyano-5-methyl-6-oxo-4-(trifluoromethyl)-1,6-dihydropyridin-2-yl)thio)acetic acid], the pIC50 is 7.59.

For the compound `CCCc1cc(=O)[nH]c(SCC(=O)O)c1C#N` [Ex. 6, 2-((3-cyano-6-oxo-4-propyl-1,6-dihydropyridin-2-yl)thio)acetic acid], the pIC50 was 5.52.

Turning to `CC(Sc1[nH]c(=O)cc(C(F)(F)F)c1C#N)C(=O)O` (centres unmarked) [Ex. 7, 2-(3-cyano-6-oxo-4-(trifluoromethyl)-1,6-dihydropyridin-2-ylthio)propanoic acid], the pIC50 is 6.57.

As for `N#Cc1c(C(F)(F)F)cc(=O)[nH]c1SCc1cccc(C(=O)O)c1` [Ex. 8, 3-((3-cyano-6-oxo-4-(trifluoromethyl)-1,6-dihydropyridin-2-ylthio)methyl)benzoic acid], the negative-log IC50 (pIC50) is 5.79.

For the compound `CCc1cc(=O)[nH]c(SCC(=O)O)c1C#N` [Ex. 9, 2-((3-cyano-4-ethyl-6-oxo-1,6-dihydropyridin-2-yl)thio)acetic acid], the pIC50 was 5.47.

In the case of `CC(C)(C)c1cc(=O)[nH]c(SCC(=O)O)c1C#N` [Ex. 10, 2-((4-(tert-butyl)-3-cyano-6-oxo-1,6-dihydropyridin-2-yl)thio)acetic acid], the pIC50 was 5.34.

Take `COCc1cc(=O)[nH]c(SCC(=O)O)c1C#N` [Ex. 11, 2-(3-cyano-4-(methoxymethyl)-6-oxo-1,6-dihydropyridin-2-ylthio)acetic acid]: the pIC50 is 5.05.

In the case of `N#Cc1c(-c2ccccc2)cc(=O)[nH]c1SCC(=O)O` [Ex. 12, 2-((3-cyano-6-oxo-4-phenyl-1,6-dihydropyridin-2-yl)thio)acetic acid], the pIC50 was 5.15.

For the compound `CC(C)c1cc(=O)[nH]c(SCC(=O)O)c1C#N` [Ex. 13, 2-((3-cyano-4-isopropyl-6-oxo-1,6-dihydropyridin-2-yl)thio)acetic acid], the negative-log IC50 (pIC50) is 5.59.

Take `N#Cc1c(C2CC2)cc(=O)[nH]c1SCC(=O)O` [Ex. 14, 2-((3-cyano-4-cyclopropyl-6-oxo-1,6-dihydropyridin-2-yl)thio)acetic acid]: the pIC50 is 5.14.

With `N#Cc1c(-c2ccccc2)cc(=O)[nH]c1SCc1cccc(C(=O)O)c1` [Ex. 15, 3-(((3-cyano-6-oxo-4-phenyl-1,6-dihydropyridin-2-yl)thio)methyl)benzoic acid], the pIC50 was 7.25.

For the compound `COc1ccc(C(=O)O)cc1CSc1[nH]c(=O)cc(C(F)(F)F)c1C#N` [Ex. 16, 3-(((3-cyano-6-oxo-4-(trifluoromethyl)-1,6-dihydropyridin-2-yl)thio)methyl)-4-methoxybenzoic acid], the pIC50 was 6.28.

Turning to `N#Cc1c(SCC(=O)O)[nH]c(=O)c(F)c1C(F)(F)F` [Ex. 17, 2-(3-cyano-5-fluoro-6-oxo-4-(trifluoromethyl)-1,6-dihydropyridin-2-ylthio)acetic acid], the pIC50 is 8.05.

Regarding `N#Cc1c(Cc2ccccc2)cc(=O)[nH]c1SCC(=O)O` [Ex. 18, 2-((4-benzyl-3-cyano-6-oxo-1,6-dihydropyridin-2-yl)thio)acetic acid], the pIC50 was 7.44.

With `N#Cc1c(C(F)(F)F)cc(=O)[nH]c1SCc1cc(C(=O)O)ccc1F` [Ex. 19, 3-((3-cyano-6-oxo-4-(trifluoromethyl)-1,6-dihydropyridin-2-ylthio)methyl)-4-fluorobenzoic acid], the pIC50 was 6.64.

On to `N#Cc1c(C(F)(F)F)cc(=O)[nH]c1SCc1cc(F)cc(C(=O)O)c1` [Ex. 20, 3-(((3-cyano-6-oxo-4-(trifluoromethyl)-1,6-dihydropyridin-2-yl)thio)methyl)-5-fluorobenzoic acid], for which the pIC50 was 6.46.

Regarding `N#Cc1c(C(F)(F)F)cc(=O)[nH]c1SCc1cccc(C(=O)O)c1F` [Ex. 22, 3-(((3-cyano-6-oxo-4-(trifluoromethyl)-1,6-dihydropyridin-2-yl)thio)methyl)-2-fluorobenzoic acid], the pIC50 was 6.08.

On to `N#Cc1c(-c2cccs2)cc(=O)[nH]c1SCc1cccc(C(=O)O)c1` [Ex. 23, 3-(((3-cyano-6-oxo-4-(thiophen-2-yl)-1,6-dihydropyridin-2-yl)thio)methyl)benzoic acid], for which the pIC50 is 8.15.

In the case of `N#Cc1c(C2CCCCC2)cc(=O)[nH]c1SCc1cccc(C(=O)O)c1` [Ex. 24, 3-(((3-cyano-4-cyclohexyl-6-oxo-1,6-dihydropyridin-2-yl)thio)methyl)benzoic acid], the negative logarithm of the IC50 (pIC50) was 6.33.

As for `Cc1cccc(-c2cc(=O)[nH]c(SCc3cccc(C(=O)O)c3)c2C#N)c1` [Ex. 25, 3-(((3-cyano-6-oxo-4-(m-tolyl)-1,6-dihydropyridin-2-yl)thio)methyl)benzoic acid], the pIC50 is 8.22.

Regarding `N#Cc1c(-c2ccncc2)cc(=O)[nH]c1SCc1cccc(C(=O)O)c1` [Ex. 26, 3-(((3-cyano-6-oxo-1,6-dihydro-[4,4′-bipyridin]-2-yl)thio)methyl)benzoic acid], the pIC50 was 7.54.

With `N#Cc1c(C(F)(F)F)cc(=O)[nH]c1SC(F)C(=O)O` (centres unmarked) [Ex. 27, 2-(3-cyano-6-oxo-4-(trifluoromethyl)-1,6-dihydropyridin-2-ylthio)-2-fluoroacetic acid], the pIC50 was 8.05.

Regarding `N#Cc1c(C(F)(F)F)cc(=O)[nH]c1SC(F)(F)C(=O)O` [Ex. 28, 2-((3-cyano-6-oxo-4-(trifluoromethyl)-1,6-dihydropyridin-2-yl)thio)-2,2-difluoroacetic acid], the pIC50 was 7.70.

With `Cc1ccc(-c2cc(=O)[nH]c(SCc3cccc(C(=O)O)c3)c2C#N)cc1` [Ex. 29, 3-(((3-cyano-6-oxo-4-(p-tolyl)-1,6-dihydropyridin-2-yl)thio)methyl)benzoic acid], the pIC50 was 8.40.

For `N#Cc1c(SCc2cccc(C(=O)O)c2)[nH]c(=O)c(F)c1-c1ccccc1` [Ex. 30, 3-(((3-cyano-5-fluoro-6-oxo-4-phenyl-1,6-dihydropyridin-2-yl)thio)methyl)benzoic acid], the pIC50 is 7.15.

In the case of `Cc1c(-c2ccccc2)c(C#N)c(SCc2cccc(C(=O)O)c2)[nH]c1=O` [Ex. 31, 3-((3-cyano-5-methyl-6-oxo-4-phenyl-1,6-dihydropyridin-2-ylthio)methyl)benzoic acid], the pIC50 was under 5.00.

As for `N#Cc1c(-c2ccccn2)cc(=O)[nH]c1SCc1cccc(C(=O)O)c1` [Ex. 32, 3-(((3′-cyano-6′-oxo-1′,6′-dihydro-[2,4′-bipyridin]-2′-yl)thio)methyl)benzoic acid], the pIC50 is 6.77.

Regarding `N#Cc1c(-c2ccccc2)cc(=O)[nH]c1SCc1cccc(C(=O)O)n1` [Ex. 33, 6-(((3-cyano-6-oxo-4-phenyl-1,6-dihydropyridin-2-yl)thio)methyl)picolinic acid], the pIC50 was 6.72.

`N#Cc1c(-c2ccccc2)cc(=O)[nH]c1SCc1cncc(C(=O)O)c1` [Ex. 34, 5-(((3-cyano-6-oxo-4-phenyl-1,6-dihydropyridin-2-yl)thio)methyl)nicotinic acid]: the negative-log IC50 (pIC50) was 8.52.

With `N#Cc1c(CC2CCCCC2)cc(=O)[nH]c1SCc1cccc(C(=O)O)c1` [Ex. 35, 3-(((3-cyano-4-(cyclohexylmethyl)-6-oxo-1,6-dihydropyridin-2-yl)thio)methyl)benzoic acid], the pIC50 is 6.70.

Turning to `N#Cc1c(-c2ccsc2)cc(=O)[nH]c1SCc1cccc(C(=O)O)c1` [Ex. 36, 3-((3-cyano-6-oxo-4-(thiophen-3-yl)-1,6-dihydropyridin-2-ylthio)methyl)benzoic acid], the pIC50 is 6.80.

As for `N#Cc1c(-c2cccnc2)cc(=O)[nH]c1SCc1cccc(C(=O)O)c1` [Ex. 37, 3-(((3′-cyano-6′-oxo-1′,6′-dihydro-[3,4′-bipyridin]-2′-yl)thio)methyl)benzoic acid], the pIC50 was 7.30.

For the compound `N#Cc1c(SCC(=O)O)[nH]c(=O)c(Cl)c1C(F)(F)F` [Ex. 38, 2-(5-chloro-3-cyano-6-oxo-4-(trifluoromethyl)-1,6-dihydropyridin-2-ylthio)acetic acid], the negative-log IC50 (pIC50) is 7.96.

On to `N#Cc1c(SCC(=O)O)[nH]c(=O)c(C#N)c1C(F)(F)F` [Ex. 39, 2-((3,5-dicyano-6-oxo-4-(trifluoromethyl)-1,6-dihydropyridin-2-yl)thio)acetic acid], for which the pIC50 is under 5.00.

For `N#Cc1c(SCc2nnn[nH]2)[nH]c(=O)c(Cl)c1C(F)(F)F` [Ex. 40, 2-((1H-tetrazol-5-yl)methylthio)-5-chloro-6-oxo-4-(trifluoromethyl)-1,6-dihydropyridine-3-carbonitrile], the pIC50 was 8.40.

With `N#Cc1c(SCc2cccc(C(=O)O)c2)[nH]c(=O)c(Cl)c1-c1ccccc1` [Ex. 41, 3-(((5-chloro-3-cyano-6-oxo-4-phenyl-1,6-dihydropyridin-2-yl)thio)methyl)benzoic acid], the pIC50 is 8.52.

In the case of `N#Cc1c(C(F)(F)F)cc(=O)[nH]c1SCc1cccc(-c2nnn[nH]2)c1` [Ex. 42, 2-(3-(1H-tetrazol-5-yl)benzylthio)-6-oxo-4-(trifluoromethyl)-1,6-dihydropyridine-3-carbonitrile], the pIC50 is 7.49.
